Activity calls are given as the source filed them. The rule behind the calls is not given here.
Key:
[1] = target: T1, Gamma-secretase (Homo sapiens) (UniProt Q96BI3+Q9NZ42+Q8WW43+P49768+Q92542+P49810); experiment: Inhibition of gamma-secretase in HEK293 cells co-overexpressing APP Swedish mutant assessed as inhibition of amyloid beta 40 production at 1 uM by luciferase reporter gene assay relative to DAPT; type: cell-based; details: values are per cent of control
[2] = target: T1, Gamma-secretase (Homo sapiens); experiment: Inhibition of gamma-secretase in HEK293 cells co-overexpressing APP Swedish mutant assessed as inhibition of amyloid beta 40 production at 100 uM by luciferase reporter gene assay relative to DAPT; type: cell-based; details: for residual activity: values are per cent of control
[3] = target: T1, Gamma-secretase (Homo sapiens); experiment: Inhibition of gamma-secretase in HEK293 cells co-overexpressing APP Swedish mutant assessed as inhibition of amyloid beta 42 production at 1 uM by luciferase reporter gene assay relative to DAPT; type: cell-based; details: values are per cent of control
[4] = target: T1, Gamma-secretase (Homo sapiens); experiment: Inhibition of gamma-secretase in HEK293 cells co-overexpressing APP Swedish mutant assessed as inhibition of amyloid beta 42 production at 100 uM by luciferase reporter gene assay relative to DAPT; type: cell-based; details: for residual activity: values are per cent of control
[5] = target: T1, Gamma-secretase (Homo sapiens); experiment: Inhibition of gamma-secretase in HEK293 cells co-overexpressing NotchdeltaE assessed as inhibition of notch cleavage at 1 uM by luciferase reporter gene assay relative to DAPT; type: cell-based; details: for residual activity: values are per cent of control
[6] = target: T1, Gamma-secretase (Homo sapiens); experiment: Inhibition of gamma-secretase in HEK293 cells co-overexpressing NotchdeltaE assessed as inhibition of notch cleavage at 100 uM by luciferase reporter gene assay relative to DAPT; type: cell-based; details: values are per cent of control
[7] = target: T1, Gamma-secretase (Homo sapiens); experiment: Inhibition of gamma-secretase in HEK293 cells co-overexpressing NotchdeltaE assessed as inhibition of notch cleavage at 3 uM by luciferase reporter gene assay relative to DAPT; type: cell-based; details: values are per cent of control
[8] = target: T1, Gamma-secretase (Homo sapiens); experiment: Inhibition of gamma-secretase in HEK293 cells co-overexpressing NotchdeltaE assessed as inhibition of notch cleavage at 30 uM by luciferase reporter gene assay relative to DAPT; type: cell-based; details: values are per cent of control
[9] = target: T1, Gamma-secretase (Homo sapiens); experiment: Inhibition of gamma-secretase in HEK293 cells co-overexpressing APP Swedish mutant assessed as inhibition of amyloid beta 40 production at 3 uM by luciferase reporter gene assay relative to DAPT; type: cell-based; details: values are per cent of control
[10] = target: T1, Gamma-secretase (Homo sapiens); experiment: Inhibition of gamma-secretase in HEK293 cells co-overexpressing APP Swedish mutant assessed as inhibition of amyloid beta 40 production at 30 uM by luciferase reporter gene assay relative to DAPT; type: cell-based; details: values are per cent of control
[11] = target: T1, Gamma-secretase (Homo sapiens); experiment: Inhibition of gamma-secretase in HEK293 cells co-overexpressing APP Swedish mutant assessed as inhibition of amyloid beta 42 production at 3 uM by luciferase reporter gene assay relative to DAPT; type: cell-based; details: values are per cent of control
[12] = target: T1, Gamma-secretase (Homo sapiens); experiment: Inhibition of gamma-secretase in HEK293 cells co-overexpressing APP Swedish mutant assessed as inhibition of amyloid beta 42 production at 30 uM by luciferase reporter gene assay relative to DAPT; type: cell-based; details: values are per cent of control
[13] = target: Gamma-secretase; experiment: Inhibition of gamma-secretase in HEK293 cells co-overexpressing APP Swedish mutant assessed as inhibition of amyloid beta 40 production by luciferase reporter gene assay; type: cell-based, Homo sapiens
[14] = target: Gamma-secretase; experiment: Inhibition of gamma-secretase in HEK293 cells co-overexpressing APP Swedish mutant assessed as inhibition of amyloid beta 42 production by luciferase reporter gene assay; type: cell-based, Homo sapiens
[15] = target: Gamma-secretase; experiment: Inhibition of gamma-secretase in HEK293 cells co-overexpressing NotchdeltaE assessed as inhibition of notch cleavage by luciferase reporter gene assay; type: cell-based, Homo sapiens

| SMILES | residual activity [1] [%] | residual activity [2] [%] | residual activity [3] [%] | residual activity [4] [%] | residual activity [5] [%] | residual activity [6] [%] | IC50 [13] [µM] | IC50 [14] [µM] | IC50 [15] [µM] | further results |
| --- | --- | --- | --- | --- | --- | --- | --- | --- | --- | --- |
| CCC(Cc1ccc(F)c(C(=O)NCc2ccc(Oc3ccccc3)cc2)c1)C(=O)O (stereo unspecified) | 89.8 | 63.2 | 99.7 | 106 | 6.3 | 6.8 | – | – | – | – |
| CSc1ccc(/C=C2/C(C)=C(CC(=O)O)c3cc(F)ccc32)cc1 [SULINDAC SULFIDE] | – | – | – | – | – | – | 215 | 82.5 | 53 | residual activity [7]: 90.7%; residual activity [8]: 43.9%; residual activity [9]: 98.4%; residual activity [10]: 88.6%; residual activity [11]: 97.1%; residual activity [12]: 60.3% |
| COc1ccc(CCC(=O)O)cc1CNC(=O)c1ccc(C(F)(F)F)cc1 | 104 | 112 | 102 | 104 | – | – | – | – | – | – |
| COc1ccc(CC(C)C(=O)O)cc1CNC(=O)c1ccc(C(F)(F)F)cc1 (stereo unspecified) | 114 | 132 | 109 | 139 | – | – | – | – | – | – |
| CCC(Cc1ccc(OC)c(CNC(=O)c2ccc(OCC(F)(F)F)cc2)c1)C(=O)O (stereo unspecified) | 118 | 136 | 119 | 133 | – | 84 | – | – | – | – |
| CC/C(=C\c1ccc(OC)c(C(=O)NCc2ccc(C(F)(F)F)cc2)c1)C(=O)O | – | – | – | – | – | – | 32.7 | 22.4 | > 100 | – |
| CCC(Cc1ccc(OC)c(CNC(=O)c2ccc(C(F)(F)F)cc2)c1)C(=O)O (stereo unspecified) | 89.5 | – | 101 | – | 31.2 | 0 | – | – | – | – |
| CCC(Cc1ccc(OC)c(CNC(=O)c2ccc(Oc3ccccc3)cc2)c1)C(=O)O (stereo unspecified) | 103 | 119 | 103 | 145 | – | – | – | – | – | – |

Continued, in another order:

| residual activity [1] [%] | residual activity [2] [%] | residual activity [3] [%] | residual activity [4] [%] | residual activity [5] [%] | residual activity [6] [%] | IC50 [13] [µM] | IC50 [14] [µM] | IC50 [15] [µM] | SMILES | further results |
| --- | --- | --- | --- | --- | --- | --- | --- | --- | --- | --- |
| – | – | – | – | – | – | 37.8 | 34.2 | > 100 | CC[C@H](Cc1ccc(OC)c(C(=O)NCc2ccc(C(F)(F)F)cc2)c1)C(=O)O | inhibition [2]: Active; inhibition [4]: Active |
| 90.6 | 42.6 | 87.4 | 55.7 | 67.2 | 0 | – | – | – | CCC(Cc1ccc(F)c(C(=O)NCc2ccc(OC(F)(F)F)cc2)c1)C(=O)O (stereo unspecified) | – |
| – | – | – | – | – | – | > 100 | > 100 | 24 | CC[C@@H](Cc1ccc(OC)c(C(=O)NCc2ccc(C(F)(F)F)cc2)c1)C(=O)O | inhibition [5]: Active |
| 82 | 41 | 88.5 | 15.2 | 102 | 8.9 | – | – | – | CCC(Cc1ccc(OC)c(C(=O)NCc2ccc(C(F)(F)F)cc2)c1)C(=O)O (stereo unspecified) | – |
| 77.6 | 13 | 63.3 | 0 | 53.8 | 38.5 | – | – | – | CCC(Cc1ccc(F)c(C(=O)NCc2ccc(C(F)(F)F)cc2)c1)C(=O)O (stereo unspecified) | – |

From ChEMBL document CHEMBL1221235, “Novel Notch-sparing gamma-secretase inhibitors derived from a peroxisome proliferator-activated receptor agonist library” (Bioorg Med Chem Lett, 2010)
